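Cells were grown in 96-well plates and exposed to each compound for 48 hours at five concentrations; endpoints were interpolated linearly between bracketing concentrations, or set to the highest concentration if not reached. The concentration for 50% growth inhibition is given as GI50. TGI is the concentration that stops growth completely.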
Legend:
Assay in all cases: DTP human tumour cell line panel, 48 h
CCRF-CEM leukemia = system: CCRF-CEM leukemia
NCI-H226 lung = system: NCI-H226 lung
OVCAR-5 ovarian = system: OVCAR-5 ovarian
HCT-15 colon = system: HCT-15 colon
SF-268 CNS = system: SF-268 CNS
DU-145 prostate = system: DU-145 prostate
SK-MEL-5 melanoma = system: SK-MEL-5 melanoma
HT29 colon = system: HT29 colon
NCI-H522 lung = system: NCI-H522 lung
UO-31 renal = system: UO-31 renal
M14 melanoma = system: M14 melanoma
RXF 393 renal = system: RXF 393 renal
K-562 leukemia = system: K-562 leukemia
A549 NSCLC = system: A549 NSCLC
CAKI-1 renal = system: CAKI-1 renal
NCI-H23 lung = system: NCI-H23 lung
HOP-62 NSCLC = system: HOP-62 NSCLC
NCI/ADR-RES ovarian = system: NCI/ADR-RES ovarian
SK-OV-3 ovarian = system: SK-OV-3 ovarian
BT-549 breast = system: BT-549 breast
LOX IMVI melanoma = system: LOX IMVI melanoma
SN12C renal = system: SN12C renal
MOLT-4 leukemia = system: MOLT-4 leukemia
HCC-2998 colon = system: HCC-2998 colon
786-0 renal = system: 786-0 renal
HS 578T breast = system: HS 578T breast
SNB-75 CNS = system: SNB-75 CNS
OVCAR-3 ovarian = system: OVCAR-3 ovarian
OVCAR-8 ovarian = system: OVCAR-8 ovarian
SF-539 CNS = system: SF-539 CNS
NCI-H460 lung = system: NCI-H460 lung
OVCAR-4 ovarian = system: OVCAR-4 ovarian
SK-MEL-28 melanoma = system: SK-MEL-28 melanoma
SK-MEL-2 melanoma = system: SK-MEL-2 melanoma
UACC-257 melanoma = system: UACC-257 melanoma
SF-295 CNS = system: SF-295 CNS
KM12 colon = system: KM12 colon
EKVX NSCLC = system: EKVX NSCLC
U251 CNS = system: U251 CNS
SNB-19 CNS = system: SNB-19 CNS
ACHN renal = system: ACHN renal
A498 renal = system: A498 renal
MCF7 breast = system: MCF7 breast
RPMI-8226 leukemia = system: RPMI-8226 leukemia
TK-10 renal = system: TK-10 renal
HOP-92 NSCLC = system: HOP-92 NSCLC
PC-3 prostate = system: PC-3 prostate
COLO 205 colon = system: COLO 205 colon
T-47D breast = system: T-47D breast
MDA-MB-231 breast = system: MDA-MB-231 breast
UACC-62 melanoma = system: UACC-62 melanoma
MDA-MB-435 = system: MDA-MB-435
SW-620 colon = system: SW-620 colon
HCT-116 colon = system: HCT-116 colon
IGROV1 ovarian = system: IGROV1 ovarian

SMILES: O=C(Oc1ccccc1Cl)c1ccccc1Nc1cccc(C(F)(F)F)c1
- GI50 (CCRF-CEM leukemia): 3.42 µM
- TGI (CCRF-CEM leukemia): 12.3 µM
- GI50 (NCI-H226 lung): 20.2 µM
- TGI (NCI-H226 lung): 47.9 µM
- GI50 (OVCAR-5 ovarian): 30.6 µM
- TGI (OVCAR-5 ovarian): 94.7 µM
- GI50 (HCT-15 colon): 29.4 µM
- TGI (HCT-15 colon): > 100 µM
- GI50 (SF-268 CNS): 20.5 µM
- TGI (SF-268 CNS): 60.6 µM
- GI50 (DU-145 prostate): 31.8 µM
- TGI (DU-145 prostate): 89 µM
- GI50 (SK-MEL-5 melanoma): 14.8 µM
- TGI (SK-MEL-5 melanoma): 30.8 µM
- GI50 (HT29 colon): 30 µM
- TGI (HT29 colon): > 100 µM
- GI50 (NCI-H522 lung): 19.5 µM
- TGI (NCI-H522 lung): 52.4 µM
- GI50 (UO-31 renal): 30.9 µM
- TGI (UO-31 renal): > 100 µM
- GI50 (M14 melanoma): 13.9 µM
- TGI (M14 melanoma): 38.9 µM
- GI50 (RXF 393 renal): 13.9 µM
- TGI (RXF 393 renal): 43.9 µM
- GI50 (K-562 leukemia): 2.67 µM
- TGI (K-562 leukemia): 8.43 µM
- GI50 (A549 NSCLC): 36 µM
- TGI (A549 NSCLC): > 100 µM
- GI50 (CAKI-1 renal): 20.7 µM
- TGI (CAKI-1 renal): 49 µM
- GI50 (NCI-H23 lung): 19.8 µM
- TGI (NCI-H23 lung): 73.7 µM
- GI50 (HOP-62 NSCLC): 24.6 µM
- TGI (HOP-62 NSCLC): 70.5 µM
- GI50 (NCI/ADR-RES ovarian): 19 µM
- TGI (NCI/ADR-RES ovarian): 44.4 µM
- GI50 (SK-OV-3 ovarian): 47.5 µM
- TGI (SK-OV-3 ovarian): > 100 µM
- GI50 (BT-549 breast): 18.3 µM
- TGI (BT-549 breast): 52.6 µM
- GI50 (LOX IMVI melanoma): 11.9 µM
- TGI (LOX IMVI melanoma): 33.5 µM
- GI50 (SN12C renal): 23.4 µM
- TGI (SN12C renal): > 100 µM
- GI50 (MOLT-4 leukemia): 3.89 µM
- TGI (MOLT-4 leukemia): 14.6 µM
- GI50 (HCC-2998 colon): 12.6 µM
- TGI (HCC-2998 colon): 26.7 µM
- GI50 (786-0 renal): 27.2 µM
- TGI (786-0 renal): 96.6 µM
- GI50 (HS 578T breast): 26.1 µM
- TGI (HS 578T breast): 67.1 µM
- GI50 (SNB-75 CNS): 43.1 µM
- TGI (SNB-75 CNS): > 100 µM
- GI50 (OVCAR-3 ovarian): 15.4 µM
- TGI (OVCAR-3 ovarian): 32.9 µM
- GI50 (OVCAR-8 ovarian): 32 µM
- TGI (OVCAR-8 ovarian): > 100 µM
- GI50 (SF-539 CNS): 22.1 µM
- TGI (SF-539 CNS): 42.2 µM
- GI50 (NCI-H460 lung): 37.3 µM
- TGI (NCI-H460 lung): > 100 µM
- GI50 (OVCAR-4 ovarian): 62.7 µM
- TGI (OVCAR-4 ovarian): > 100 µM
- GI50 (SK-MEL-28 melanoma): 38.5 µM
- TGI (SK-MEL-28 melanoma): > 100 µM
- GI50 (SK-MEL-2 melanoma): 20.9 µM
- TGI (SK-MEL-2 melanoma): > 100 µM
- GI50 (UACC-257 melanoma): 26.4 µM
- TGI (UACC-257 melanoma): 76 µM
- GI50 (SF-295 CNS): 24.8 µM
- TGI (SF-295 CNS): 54.3 µM
- GI50 (KM12 colon): 19.6 µM
- TGI (KM12 colon): 44.6 µM
- GI50 (EKVX NSCLC): 33.1 µM
- TGI (EKVX NSCLC): 79.6 µM
- GI50 (U251 CNS): 23.6 µM
- TGI (U251 CNS): 58.2 µM
- GI50 (SNB-19 CNS): 73.2 µM
- TGI (SNB-19 CNS): > 100 µM
- GI50 (ACHN renal): 40.3 µM
- TGI (ACHN renal): > 100 µM
- GI50 (A498 renal): 24.8 µM
- TGI (A498 renal): 54.8 µM
- GI50 (MCF7 breast): 33.9 µM
- TGI (MCF7 breast): > 100 µM
- GI50 (RPMI-8226 leukemia): 18.4 µM
- TGI (RPMI-8226 leukemia): 54.2 µM
- GI50 (TK-10 renal): 32.7 µM
- TGI (TK-10 renal): 67.9 µM
- GI50 (HOP-92 NSCLC): 5.81 µM
- TGI (HOP-92 NSCLC): 38.2 µM
- GI50 (PC-3 prostate): 26 µM
- TGI (PC-3 prostate): > 100 µM
- GI50 (COLO 205 colon): 28 µM
- TGI (COLO 205 colon): > 100 µM
- GI50 (T-47D breast): 43.4 µM
- TGI (T-47D breast): > 100 µM
- GI50 (MDA-MB-231 breast): 20.2 µM
- TGI (MDA-MB-231 breast): 48.3 µM
- GI50 (UACC-62 melanoma): 16.9 µM
- TGI (UACC-62 melanoma): 42.9 µM
- GI50 (MDA-MB-435): 11.7 µM
- TGI (MDA-MB-435): 32.3 µM
- GI50 (SW-620 colon): 8.07 µM
- TGI (SW-620 colon): 54.4 µM
- GI50 (HCT-116 colon): 14.7 µM
- TGI (HCT-116 colon): 40.9 µM
- GI50 (IGROV1 ovarian): 28 µM
- TGI (IGROV1 ovarian): > 100 µM

Reference: PubChem BioAssay (NCI)
